Measurements as given in ChEMBL document CHEMBL5303765, “Data for DCP probe BAY-7081” (2023).
The source made the active and inactive calls. The rule behind the calls is not given here.

How the values were obtained:
[1] = target: High affinity cGMP-specific 3',5'-cyclic phosphodiesterase 9A (Mus musculus, UniProt O70628); test: Cellular PDE9A assay; format: functional
Peregrin (Homo sapiens) = target: T1, Peregrin (Homo sapiens) (UniProt P55201); test: BRPF1 SGC Tm panel (DSF); conditions: for ΔTm: Compound concentration 10.0 uM
T1 sequence (whole entry): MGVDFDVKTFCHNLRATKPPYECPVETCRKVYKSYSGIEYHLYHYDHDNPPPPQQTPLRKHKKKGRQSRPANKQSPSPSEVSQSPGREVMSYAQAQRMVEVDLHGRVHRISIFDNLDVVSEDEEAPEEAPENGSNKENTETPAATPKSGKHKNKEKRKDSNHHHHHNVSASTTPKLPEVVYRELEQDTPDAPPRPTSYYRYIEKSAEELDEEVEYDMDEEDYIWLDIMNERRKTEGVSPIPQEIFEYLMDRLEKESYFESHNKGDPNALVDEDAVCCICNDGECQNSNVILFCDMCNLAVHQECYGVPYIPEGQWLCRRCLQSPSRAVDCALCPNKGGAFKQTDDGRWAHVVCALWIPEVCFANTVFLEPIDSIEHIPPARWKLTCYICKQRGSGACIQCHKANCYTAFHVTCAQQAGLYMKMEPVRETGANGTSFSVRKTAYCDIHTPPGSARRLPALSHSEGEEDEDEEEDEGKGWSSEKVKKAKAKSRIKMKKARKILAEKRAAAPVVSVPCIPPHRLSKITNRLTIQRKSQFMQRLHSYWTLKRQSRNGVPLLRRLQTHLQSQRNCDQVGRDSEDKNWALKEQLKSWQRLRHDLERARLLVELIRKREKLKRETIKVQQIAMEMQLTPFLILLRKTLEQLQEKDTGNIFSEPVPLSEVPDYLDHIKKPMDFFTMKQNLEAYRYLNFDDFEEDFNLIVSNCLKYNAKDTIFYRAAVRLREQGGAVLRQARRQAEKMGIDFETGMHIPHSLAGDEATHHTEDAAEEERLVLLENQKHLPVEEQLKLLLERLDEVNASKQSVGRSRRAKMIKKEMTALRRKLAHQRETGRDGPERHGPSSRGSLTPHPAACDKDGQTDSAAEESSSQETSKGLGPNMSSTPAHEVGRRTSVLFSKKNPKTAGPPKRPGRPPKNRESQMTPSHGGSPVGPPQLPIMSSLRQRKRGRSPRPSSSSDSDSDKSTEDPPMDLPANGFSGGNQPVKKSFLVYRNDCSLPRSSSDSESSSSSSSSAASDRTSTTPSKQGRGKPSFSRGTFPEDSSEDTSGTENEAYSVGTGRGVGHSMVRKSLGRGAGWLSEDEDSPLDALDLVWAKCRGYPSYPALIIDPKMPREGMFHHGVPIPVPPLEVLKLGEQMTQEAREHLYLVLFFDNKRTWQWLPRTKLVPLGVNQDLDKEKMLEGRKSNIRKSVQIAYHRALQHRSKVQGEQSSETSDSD

[2] = target: T2, Serine/threonine-protein kinase DCLK1 (Homo sapiens) (UniProt O15075); test: DCAMKL1 SGC Tm panel (DSF); conditions: for ΔTm: Compound concentration 10.0 uM
T2 sequence (whole entry): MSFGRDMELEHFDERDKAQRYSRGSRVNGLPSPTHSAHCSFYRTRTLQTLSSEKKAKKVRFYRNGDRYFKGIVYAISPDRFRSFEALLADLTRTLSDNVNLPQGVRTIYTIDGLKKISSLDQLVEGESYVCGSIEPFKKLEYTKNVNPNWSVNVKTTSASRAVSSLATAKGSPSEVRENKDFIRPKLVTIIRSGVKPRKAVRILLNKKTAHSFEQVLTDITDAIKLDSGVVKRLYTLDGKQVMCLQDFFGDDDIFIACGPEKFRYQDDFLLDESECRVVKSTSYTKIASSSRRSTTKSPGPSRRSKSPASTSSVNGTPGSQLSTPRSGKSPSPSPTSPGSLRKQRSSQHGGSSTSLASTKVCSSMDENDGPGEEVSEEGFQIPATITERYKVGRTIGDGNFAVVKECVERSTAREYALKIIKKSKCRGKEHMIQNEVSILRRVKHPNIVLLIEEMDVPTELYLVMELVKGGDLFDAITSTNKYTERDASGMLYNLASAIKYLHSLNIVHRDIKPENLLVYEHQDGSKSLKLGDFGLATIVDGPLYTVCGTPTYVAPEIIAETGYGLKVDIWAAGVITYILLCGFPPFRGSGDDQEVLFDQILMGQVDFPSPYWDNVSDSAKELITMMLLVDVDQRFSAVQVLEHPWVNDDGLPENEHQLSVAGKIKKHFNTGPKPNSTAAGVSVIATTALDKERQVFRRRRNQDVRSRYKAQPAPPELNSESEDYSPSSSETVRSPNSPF

[3] = target: G protein-coupled receptor kinase 5 (Homo sapiens) (UniProt P34947); test: GPRK5 SGC Tm panel (DSF); conditions: for ΔTm: Compound concentration 10.0 uM
Sequence of G protein-coupled receptor kinase 5 (Homo sapiens) (P34947 whole entry, looked up): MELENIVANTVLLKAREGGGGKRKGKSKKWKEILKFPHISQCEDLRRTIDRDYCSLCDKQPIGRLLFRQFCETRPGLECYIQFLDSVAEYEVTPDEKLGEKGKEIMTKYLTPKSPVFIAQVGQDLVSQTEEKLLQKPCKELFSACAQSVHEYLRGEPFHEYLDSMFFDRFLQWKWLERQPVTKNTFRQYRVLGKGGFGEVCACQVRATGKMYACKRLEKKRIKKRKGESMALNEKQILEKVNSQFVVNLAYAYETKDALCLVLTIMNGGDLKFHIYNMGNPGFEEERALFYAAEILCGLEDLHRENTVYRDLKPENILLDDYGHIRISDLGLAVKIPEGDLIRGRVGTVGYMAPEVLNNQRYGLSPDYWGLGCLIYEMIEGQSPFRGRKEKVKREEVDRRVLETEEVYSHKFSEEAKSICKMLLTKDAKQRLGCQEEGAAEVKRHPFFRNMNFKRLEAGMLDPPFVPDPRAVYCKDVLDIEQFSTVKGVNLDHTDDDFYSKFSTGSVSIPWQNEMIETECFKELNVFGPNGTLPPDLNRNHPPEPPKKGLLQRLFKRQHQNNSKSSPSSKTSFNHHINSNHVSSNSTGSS

[4] = target: Serine/threonine-protein kinase pim-3 (Homo sapiens) (UniProt Q86V86); test: PIM3 SGC Tm panel (DSF); conditions: for ΔTm: Compound concentration 10.0 uM
[5] = target: Histamine H1 receptor (Homo sapiens) (UniProt P35367); conditions: Compound concentration 10.0 uM
Sequence of Histamine H1 receptor (Homo sapiens) (P35367 whole entry): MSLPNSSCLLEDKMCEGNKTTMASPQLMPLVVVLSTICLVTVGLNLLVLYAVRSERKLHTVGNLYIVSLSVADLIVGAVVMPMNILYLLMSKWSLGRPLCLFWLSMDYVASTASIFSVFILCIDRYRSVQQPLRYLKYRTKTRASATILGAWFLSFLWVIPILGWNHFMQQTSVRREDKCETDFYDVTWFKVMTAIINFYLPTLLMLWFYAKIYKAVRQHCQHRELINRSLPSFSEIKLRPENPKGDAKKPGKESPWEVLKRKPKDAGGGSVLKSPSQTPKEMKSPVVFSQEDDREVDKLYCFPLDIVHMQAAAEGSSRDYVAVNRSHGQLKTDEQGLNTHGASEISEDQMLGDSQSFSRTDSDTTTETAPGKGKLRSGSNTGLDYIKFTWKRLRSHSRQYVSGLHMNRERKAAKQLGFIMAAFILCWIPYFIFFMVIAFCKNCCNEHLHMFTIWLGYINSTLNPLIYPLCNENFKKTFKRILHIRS

Sequence of High affinity cGMP-specific 3',5'-cyclic phosphodiesterase 9A (O70628 whole entry): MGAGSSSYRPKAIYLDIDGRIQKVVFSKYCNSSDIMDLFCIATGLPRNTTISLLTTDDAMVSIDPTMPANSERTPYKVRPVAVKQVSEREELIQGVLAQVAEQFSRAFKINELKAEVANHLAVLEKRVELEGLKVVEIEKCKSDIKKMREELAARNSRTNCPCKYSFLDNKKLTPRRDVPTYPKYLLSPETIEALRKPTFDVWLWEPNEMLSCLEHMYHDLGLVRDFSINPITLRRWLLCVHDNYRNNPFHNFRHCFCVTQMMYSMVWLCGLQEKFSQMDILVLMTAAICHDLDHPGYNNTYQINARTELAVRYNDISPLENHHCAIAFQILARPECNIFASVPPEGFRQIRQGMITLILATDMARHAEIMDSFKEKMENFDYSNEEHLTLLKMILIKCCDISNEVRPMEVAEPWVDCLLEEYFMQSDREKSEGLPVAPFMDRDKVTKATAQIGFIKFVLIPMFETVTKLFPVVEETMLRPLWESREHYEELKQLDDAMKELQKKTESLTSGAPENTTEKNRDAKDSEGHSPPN

| Compound | EC50 [1] | delta Tm Staurosporine positive control (Peregrin (Homo sapiens)) | ΔTm (Peregrin (Homo sapiens)) | delta Tm Staurosporine positive control [2] | ΔTm [2] | delta Tm Staurosporine positive control [3] | ΔTm [3] | delta Tm Staurosporine positive control [4] | ΔTm [4] | inhibition [5] [%] |
| --- | --- | --- | --- | --- | --- | --- | --- | --- | --- | --- |
| CCC[C@@H]1CNCc2c1[nH]c(=O)c(C#N)c2N1CCC2(CC1)CC2 | > 10 µM (not active) | -0.107 | -0.426 | 12.7 | -1.16 | 7.03 | 0.00192 | 16.7 | -0.32 | 4.72 |
| CCC[C@H]1CNCc2c1[nH]c(=O)c(C#N)c2N1CCC2(CC1)CC2 | 0.995 µM (active) | -0.107 | -0.754 | 12.7 | -1.21 | 7.03 | 0.0527 | 16.7 | -0.159 | -2.94 |
